In patent US9120804B2, “8-substituted 2-amino-[1,2,4] triazolo [1, 5-A] pyrazines as Syk tryrosine kinase inhibitors and GCN2 serin kinase inhibitors” (Merck Patent GmbH, priority 2012, dated 2015):

The molecules below were run against T1, SYK (Homo sapiens, UniProt P43405) (assay: SYK flash plate assay (enzyme assay)).
T1 construct: 2.5 nM SYK, 400 nM Biotin-Aha-Aha-KEDPDYEWPSAKK
Type: biochemical
In short: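 Radiometric Flashplate format: biotinylated peptide substrate (400 nM) and 33P-labelled ATP (10 μM) react with 2.5 nM enzyme for 1 hour at 30 °C in Hepes buffer, pH 7.5. After EDTA quench and washing, counts are taken; staurosporine defines non-specific signal, and IC50 values are derived.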

Row | IC50 | Compound
1 | < 100 nM | CC1(C)C(=O)Nc2cc(Nc3nc4c(N5CCc6nc(O)nc(O)c6C5)nccn4n3)ccc21 [E1, 6-[8-(2,4-dihydroxy-7,8-dihydro-5H-pyrido[4,3-d]pyrimidin-6-yl)-[1,2,4]triazolo[1,5-a]pyrazin-2-ylamino]-3,3-dimethyl-1,3-dihydro-indol-2-one]
2 | 3000 to 50000 nM | CC1(C)C(=O)Nc2cc(Nc3nc4c(N5C[C@H](O)C[C@H]5c5ccccc5)nccn4n3)ccc21 [E24, 6-[8-((2S,4R)-4-hydroxy-2-phenyl-pyrrolidin-1-yl)-[1,2,4]triazolo[1,5-a]pyrazin-2-ylamino]-3,3-dimethyl-1,3-dihydro-indol-2-one]
3 | 3000 to 50000 nM | CC1(C)C(=O)Nc2cc(Nc3nc4c(N5CCC(CO)C5)nccn4n3)ccc21 (centres unmarked) [E30, 6-[8-(3-hydroxymethyl-pyrrolidin-1-yl)-[1,2,4]triazolo[1,5-a]pyrazin-2-ylamino]-3,3-dimethyl-1,3-dihydro-indol-2-one]
4 | 300 to 3000 nM | COc1cc(Nc2nc3c(N4CCC(NS(C)(=O)=O)CC4)nccn3n2)cc(OC)c1 [C53, N-{1-[2-(3,5-dimethoxy-phenylamino)-[1,2,4]triazolo[1,5-a]pyrazin-8-yl]-piperidin-4-yl}-methanesulfonamide]
5 | 300 to 3000 nM | CC1(C)C(=O)Nc2cc(Nc3nc4c(N5C[C@@H]6C[C@H]5CN6)nccn4n3)ccc21 [C89, 6-[(1S,4S)-8-(2,5-diaza-bicyclo[2.2.1]hept-2-yl)-[1,2,4]triazolo[1,5-a]pyrazin-2-ylamino]-3,3-dimethyl-1,3-dihydro-indol-2-one]
6 | 100 to 300 nM | Cn1cc(-c2nccn3nc(Nc4ccc5c(c4)NS(=O)(=O)C5)nc23)cn1 [E23, (2,2-dioxo-2,3-dihydro-1H-2I6-benzo[c]isothiazol-6-yl)-[8-(1-methyl-1H-pyrazol-4-yl)-[1,2,4]triazolo[1,5-a]pyrazin-2-yl]-amine]
7 | < 100 nM | CC1(C)C(=O)Nc2cc(Nc3nc4c(-c5cnc6ccccc6c5)nccn4n3)ccc21 [E115, 3,3-Dimethyl-6-(8-quinolin-3-yl-[1,2,4]triazolo[1,5-a]pyrazin-2-ylamino)-1,3-dihydro-indol-2-one]
8 | 3000 to 50000 nM | CC1(C)C(=O)Nc2cc(Nc3nc4c(N5C[C@@H](O)C[C@H]5c5ccccc5)nccn4n3)ccc21 [E29, 6-[8-((2S,4S)-4-hydroxy-2-phenyl-pyrrolidin-1-yl)-[1,2,4]triazolo[1,5-a]pyrazin-2-ylamino]-3,3-dimethyl-1,3-dihydro-indol-2-one]
9 | < 100 nM | CC1(C)C(=O)Nc2cc(Nc3nc4c(N5CCc6ccc(C(N)=O)cc6C5)nccn4n3)ccc21 [E128, 2-[2-(3,3-dimethyl-2-oxo-2,3-dihydro-1H-indol-6-ylamino)-[1,2,4]triazolo[1,5-a]pyrazin-8-yl]-1,2,3,4-tetrahydro-isoquinoline-7-carboxylic acid amide]
10 | < 100 nM | Cn1cc(-c2nccc3nc(Nc4ccc5c(c4)NC(=O)CCC5(C)C)nn23)cn1 [E155, 5,5-dimethyl-8-[5-(1-methyl-1H-pyrazol-4-yl)-[1,2,4]triazolo[1,5-c]pyrimidin-2-ylamino]-1,3,4,5-tetrahydro-benzo[b]azepin-2-one]
11 | 100 to 300 nM | CC1=NOCC2(CCN(c3nccn4nc(Nc5ccc6c(c5)NC(=O)C6(C)C)nc34)CC2)C1 [E58, 3,3-dimethyl-6-[8-(4-methyl-2-oxa-3,9-diaza-spiro[5.5]undec-3-en-9-yl)-[1,2,4]triazolo[1,5-a]pyrazin-2-ylamino]-1,3-dihydro-indol-2-one]
12 | < 100 nM | CC1(C)C(=O)Nc2cc(Nc3nc4c(N5CCC6(CNC(=O)C6)C5)nccn4n3)ccc21 (centres unmarked) [E20, 3,3-dimethyl-6-[8-(8-oxo-2,7-diaza-spiro[4.4]non-2-yl)-[1,2,4]triazolo[1,5-a]pyrazin-2-ylamino]-1,3-dihydro-indol-2-one]
13 | < 100 nM | CC1(C)C(=O)Nc2cc(Nc3nc4c(N5CCC6(CC5)NC(=O)NC6=O)nccn4n3)ccc21 [E28, 8-[2-(3,3-dimethyl-2-oxo-2,3-dihydro-1H-indol-6-ylamino)-[1,2,4]triazolo[1,5-a]pyrazin-8-yl]-1,3,8-triaza-spiro[4.5]decane-2,4-dione]
14 | 300 to 3000 nM | CC1(C)C(=O)Nc2cc(Nc3nc4c(NS(=O)(=O)c5ccccc5)nccn4n3)ccc21 [E111, N-[2-(3,3-dimethyl-2-oxo-2,3-dihydro-1H-indol-6-ylamino)-[1,2,4]triazolo[1,5-a]pyrazin-8-yl]-benzenesulfonamide]
15 | < 100 nM | CC1(C)C(=O)Nc2cc(Nc3nc4c(N5CCC6(CCNC6)C5)nccn4n3)ccc21 (centres unmarked) [E87, 6-[8-(2,7-diaza-spiro[4.4]non-2-yl)-[1,2,4]triazolo[1,5-a]pyrazin-2-ylamino]-3,3-dimethyl-1,3-dihydro-indol-2-one]
16 | < 100 nM | CC1(C)CCNc2cc(Nc3nc4c(N5CCN6C(=O)CNC(=O)C6C5)nccn4n3)ccc21 (centres unmarked) [E154, 8-[2-(4,4-dimethyl-1,2,3,4-tetrahydro-quinolin-7-ylamino)-[1,2,4]triazolo[1,5-a]pyrazin-8-yl]-hexahydro-pyrazino[1,2-a]pyrazine-1,4-dione]

Row | IC50 | Compound
17 | 300 to 3000 nM | CCOC(=O)c1cnn2c1CN(c1nccn3nc(Nc4ccc5c(c4)NC(=O)C5(C)C)nc13)CC2 [C106, 5-[2-(3,3-dimethyl-2-oxo-2,3-dihydro-1H-indol-6-ylamino)-[1,2,4]triazolo[1,5-a]pyrazin-8-yl]-4,5,6,7-tetrahydro-pyrazolo[1,5-a]pyrazine-3-carboxylic acid ethyl ester]
18 | < 100 nM | CN(C)c1ccc(-c2nccn3nc(Nc4ccc5c(c4)NC(=O)C5(C)C)nc23)cn1 [E139, 6-[8-(6-dimethylamino-pyridin-3-yl)-[1,2,4]triazolo[1,5-a]pyrazin-2-ylamino]-3,3-dimethyl-1,3-dihydro-indol-2-one]
19 | < 100 nM | CC1(C(N)=O)CCN(c2nccn3nc(Nc4ccc5c(c4)NC(=O)C5(C)C)nc23)C1 (centres unmarked) [E75, 1-[2-(3,3-dimethyl-2-oxo-2,3-dihydro-1H-indol-6-ylamino)-[1,2,4]triazolo[1,5-a]pyrazin-8-yl]-3-methyl-pyrrolidine-3-carboxylic acid amide]
20 | < 100 nM | CC1CCC(C)N1c1nccn2nc(Nc3ccc4c(c3)NC(=O)C4(C)C)nc12 (centres unmarked) [E43, 6-[8-(2,5-dimethyl-pyrrolidin-1-yl)-[1,2,4]triazolo[1,5-a]pyrazin-2-ylamino]-3,3-dimethyl-1,3-dihydro-indol-2-one]
21 | 300 to 3000 nM | CN(CCc1ccccn1)c1nccn2nc(Nc3ccc4c(c3)NC(=O)C4(C)C)nc12 [E90, 3,3-dimethyl-6-{8-[methyl-(2-pyridin-2-yl-ethyl)-amino]-[1,2,4]triazolo[1,5-a]pyrazin-2-ylamino}-1,3-dihydro-indol-2-one]
22 | 300 to 3000 nM | Cc1nn(C)c(C)c1-c1nccn2nc(Nc3ccc4c(c3)NC(=O)C4(C)C)nc12 [C68, 3,3-dimethyl-6-[8-(1,3,5-trimethyl-1H-pyrazol-4-yl)-[1,2,4]triazolo[1,5-a]pyrazin-2-ylamino]-1,3-dihydro-indol-2-one]
23 | 300 to 3000 nM | CC1(C)C(=O)Nc2cc(Nc3nc4c(N5C[C@@H](O)C[C@@H]5c5cccc(F)c5)nccn4n3)ccc21 [E62, 6-{8-[(2R,4S)-2-(3-fluoro-phenyl)-4-hydroxy-pyrrolidin-1-yl]-[1,2,4]triazolo[1,5-a]pyrazin-2-ylamino}-3,3-dimethyl-1,3-dihydro-indol-2-one]
24 | 100 to 300 nM | CC1(C)CCNc2cc(Nc3nc4c(N5CC[C@]6(CNC(=O)C6)C5)nccn4n3)ccc21 [E86, (S)-7-[2-(4,4-dimethyl-1,2,3,4-tetrahydro-quinolin-7-ylamino)-[1,2,4]triazolo[1,5-a]pyrazin-8-yl]-2,7-diaza-spiro[4.4]nonan-3-one]
25 | 300 to 3000 nM | CC1(C)C(=O)Nc2cc(Nc3nc4c(N[C@H]5CC[C@H](O)CC5)nccn4n3)ccc21 [C76, trans-6-[8-(4-hydroxy-cyclohexylamino)-[1,2,4]triazolo[1,5-a]pyrazin-2-ylamino]-3,3-dimethyl-1,3-dihydro-indol-2-one]
26 | 300 to 3000 nM | CC1(C)C(=O)Nc2cc(Nc3nc4c(N(CCO)C5CCNCC5)nccn4n3)ccc21 [C93, 6-{8-[(2-hydroxy-ethyl)-piperidin-4-yl-amino]-[1,2,4]triazolo[1,5-a]pyrazin-2-ylamino}-3,3-dimethyl-1,3-dihydro-indol-2-one]
27 | < 100 nM | CC1(C)C(=O)Nc2cc(Nc3nc4c(N5CCC(O)(C(F)(F)F)CC5)nccn4n3)ccc21 [E70, 6-[8-(4-hydroxy-4-trifluoromethyl-piperidin-1-yl)-[1,2,4]triazolo[1,5-a]pyrazin-2-ylamino]-3,3-dimethyl-1,3-dihydro-indol-2-one]
28 | < 100 nM | CC1(C)C(=O)Nc2cc(Nc3nc4c(N5CCC6(CN[C@H](C(F)(F)F)C6)C5)nccn4n3)ccc21 (stereo partly drawn) [E153, 3,3-dimethyl-6-[8-((S)-8-trifluoromethyl-2,7-diaza-spiro[4.4]non-2-yl)-[1,2,4]triazolo[1,5-a]pyrazin-2-ylamino]-1,3-dihydro-indol-2-one]
29 | < 100 nM | CC1(C)C(=O)Nc2cc(Nc3nc4c(NC5CCCNC5)nccn4n3)ccc21 (centres unmarked) [C77, 3,3-dimethyl-6-[8-(piperidin-3-ylamino)-[1,2,4]triazolo[1,5-a]pyrazin-2-ylamino]-1,3-dihydro-indol-2-one]
30 | 300 to 3000 nM | COCC1CCCN1c1nccn2nc(Nc3ccc4c(c3)NC(=O)C4(C)C)nc12 (centres unmarked) [E83, 6-[8-(2-methoxymethyl-pyrrolidin-1-yl)-[1,2,4]triazolo[1,5-a]pyrazin-2-ylamino]-3,3-dimethyl-1,3-dihydro-indol-2-one]
31 | < 100 nM | COc1cccc(Nc2nc3c(-c4ccccc4C#N)nccn3n2)c1 [E31, 2-[2-(3-methoxy-phenylamino)-[1,2,4]triazolo[1,5-a]pyrazin-8-yl]-benzonitrile]
32 | 300 to 3000 nM | CC1(C)CN(c2nccn3nc(Nc4ccc5c(c4)NC(=O)C5(C)C)nc23)c2cc(Cl)ccc21 [E100, 6-[8-(6-chloro-3,3-dimethyl-2,3-dihydro-indol-1-yl)-[1,2,4]triazolo[1,5-a]pyrazin-2-ylamino]-3,3-dimethyl-1,3-dihydro-indol-2-one]
